In PubChem BioAssay AID248 (DTP/NCI, 2004):
Where “and” joins values, the source holds several entries; their conditions need not be identical. Equal entries are not always repeated. Toxic doses and inconclusive results are not listed. No stated cut-off is given here; in the data, active means T/C of 150% or more; inactive means T/C below 125%.

Tested on: L1210 leukemia ip in BDF1 mice, survival T/C
Assay: NCI In Vivo Anticancer Drug Screen. Data for tumor model L1210 Leukemia (intraperitoneal) in B6D2F1 (BDF1) mice
Conditions: endpoint: mean survival time, higher = longer survival
How it was run: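 Transplantable tumor model; survival measured in treated vs vehicle control mice. Value = treated/control.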

[1] = dose: 200.0 mg/kg/injection, schedule: Q04DX002 (ip), vehicle: Klucel (hydroxypropylcellulose) (HPC)
[2] = dose: 400.0 mg/kg/injection, schedule: Q04DX002 (ip), vehicle: Klucel (hydroxypropylcellulose) (HPC)
[3] = dose: 25.0 mg/kg/injection, schedule: Q01DX009 (ip), vehicle: Klucel (hydroxypropylcellulose) (HPC)
[4] = dose: 100.0 mg/kg/injection, schedule: Q04DX002 (ip), vehicle: Klucel (hydroxypropylcellulose) (HPC)
[5] = dose: 100.0 mg/kg/injection, schedule: Q01DX001 (ip), vehicle: saline
[6] = dose: 200.0 mg/kg/injection, schedule: Q01DX001 (ip), vehicle: saline
[7] = dose: 400.0 mg/kg/injection, schedule: Q01DX001 (ip), vehicle: saline
[8] = dose: 100.0 mg/kg/injection, schedule: Q04DX003 (ip), vehicle: Klucel (hydroxypropylcellulose) (HPC)
[9] = dose: 200.0 mg/kg/injection, schedule: Q04DX003 (ip), vehicle: Klucel (hydroxypropylcellulose) (HPC)
[10] = dose: 400.0 mg/kg/injection, schedule: Q04DX003 (ip), vehicle: Klucel (hydroxypropylcellulose) (HPC)
[11] = dose: 100.0 mg/kg/injection, schedule: Q04DX003 (sc), vehicle: steriod suspending solution
[12] = dose: 200.0 mg/kg/injection, schedule: Q04DX003 (sc), vehicle: steriod suspending solution
[13] = dose: 400.0 mg/kg/injection, schedule: Q04DX003 (sc), vehicle: steriod suspending solution
[14] = dose: 100.0 mg/kg/injection, schedule: Q01DX009 (ip), vehicle: saline with Tween-80
[15] = dose: 200.0 mg/kg/injection, schedule: Q01DX009 (ip), vehicle: saline with Tween-80

Measured: T/C

O=C1OC2CCCCC2/C1=C/N1CCCCC1 (stereo not given)
inactive: dose: 5.0 mg/kg/injection, schedule: Q04DX002 (ip), vehicle: Klucel (hydroxypropylcellulose) (HPC) 92 % of control | dose: 10.0 mg/kg/injection, schedule: Q04DX002 (ip), vehicle: Klucel (hydroxypropylcellulose) (HPC) 102 % of control | dose: 20.0 mg/kg/injection, schedule: Q04DX002 (ip), vehicle: Klucel (hydroxypropylcellulose) (HPC) 107 % of control | dose: 40.0 mg/kg/injection, schedule: Q04DX002 (ip), vehicle: Klucel (hydroxypropylcellulose) (HPC) 93 % of control | dose: 50.0 mg/kg/injection, schedule: Q04DX002 (ip), vehicle: Klucel (hydroxypropylcellulose) (HPC) 103 % of control | [1] 102 % of control and 103 % of control | [2] 88 % of control

CC(=O)[O][Hg][c]1cc(C)cc([N+](=O)[O-])c1O
inactive: dose: 6.25 mg/kg/injection, schedule: Q01DX009 (ip), vehicle: Klucel (hydroxypropylcellulose) (HPC) 94 % of control | dose: 12.5 mg/kg/injection, schedule: Q01DX009 (ip), vehicle: Klucel (hydroxypropylcellulose) (HPC) 100 % of control | dose: 12.5 mg/kg/injection, schedule: Q04DX003 (ip), vehicle: Klucel (hydroxypropylcellulose) (HPC) 100 % of control | [3] 92 % of control | dose: 25.0 mg/kg/injection, schedule: Q04DX003 (ip), vehicle: Klucel (hydroxypropylcellulose) (HPC) 95 % of control

CC(=O)OC1CC2(CO2)C2CC=C(C)C2C2OC(=O)C(C)C12 (stereo not given)
inactive: dose: 12.5 mg/kg/injection, schedule: Q04DX002 (ip), vehicle: saline 110 % of control | dose: 25.0 mg/kg/injection, schedule: Q04DX002 (ip), vehicle: saline 100 % of control | dose: 50.0 mg/kg/injection, schedule: Q04DX002 (ip), vehicle: saline 95 % of control | [4] 90 % of control | [1] 100 % of control

OCCCC(O)CO (stereo not given)
inactive: dose: 222.0 mg/kg/injection, schedule: Q01DX Z (ip), vehicle: saline 98 % of control | dose: 333.0 mg/kg/injection, schedule: Q01DX Z (ip), vehicle: saline 111 % of control | dose: 500.0 mg/kg/injection, schedule: Q01DX Z (ip), vehicle: saline 102 % of control

O=C1CC=C2C3CC4N(CCC45c4ccccc4N1C25)C/C3=C\CBr (stereo not given)
inactive: dose: 9.38 mg/kg/injection, schedule: Q01DX001 (ip), vehicle: other 100 % of control

CC(=O)Nc1nc(Cl)c2ncn(C3OC(COC(=O)c4ccccc4)C(OC(=O)c4ccccc4)C3OC(=O)c3ccccc3)c2n1 (stereo not given)
inactive: dose: 75.0 mg/kg/injection, schedule: Q01DX001 (ip), vehicle: saline 95 % of control | [5] 103 % of control | dose: 150.0 mg/kg/injection, schedule: Q01DX001 (ip), vehicle: saline 98 % of control | [6] 101 % of control | dose: 300.0 mg/kg/injection, schedule: Q01DX001 (ip), vehicle: saline 95 % of control | [7] 95 % of control

N#C/C(=C/c1ccccc1B(O)O)C(=O)O
inactive: [8] 89 % of control | [9] 93 % of control | [10] 95 % of control

CCOC(=O)CNc1cccc(Cl)c1
inactive: [4] 107 % of control | [1] 103 % of control | [2] 96 % of control

CCCC/C(=N\NC(N)=S)c1ccc(F)cc1
inactive: dose: 8.0 mg/kg/injection, schedule: Q01DX Z (ip), vehicle: methylcellulose (MC) 95 % of control | dose: 15.0 mg/kg/injection, schedule: Q01DX Z (ip), vehicle: methylcellulose (MC) 89 % of control | dose: 30.0 mg/kg/injection, schedule: Q01DX Z (ip), vehicle: methylcellulose (MC) 98 % of control | dose: 30.0 mg/kg/injection, schedule: Q01DX Z (oral), vehicle: methylcellulose (MC) 86 % of control | dose: 60.0 mg/kg/injection, schedule: Q01DX Z (ip), vehicle: methylcellulose (MC) 87 % of control

CCOC(=O)C1=C2c3ccc4cc(OC)ccc4c3CCC2(C)C(=O)C1 (stereo not given)
inactive: [11] 102 % of control | [12] 109 % of control | [13] 109 % of control

CC(=O)C1CCC2C3CCC4(C)CC(=O)CCC4(C)C3C3OC3C12C (stereo not given)
inactive: [11] 98 % of control | [12] 96 % of control | [13] 102 % of control

O=C1CCSC1
inactive: dose: 50.0 mg/kg/injection, schedule: Q01DX009 (ip), vehicle: saline with Tween-80 87 % of control | [14] 98 % of control | [15] 98 % of control

CCCCOC(=N)Cc1cc(OC)c(OC)c(OC)c1
inactive: dose: 75.0 mg/kg/injection, schedule: Q04DX003 (ip), vehicle: saline with Tween-80 98 % of control | dose: 150.0 mg/kg/injection, schedule: Q04DX003 (ip), vehicle: saline with Tween-80 92 % of control | dose: 300.0 mg/kg/injection, schedule: Q04DX003 (ip), vehicle: saline with Tween-80 98 % of control

O=c1ccnc[nH]1
inactive: [14] 92 % of control | [15] 93 % of control | dose: 400.0 mg/kg/injection, schedule: Q01DX009 (ip), vehicle: saline with Tween-80 88 % of control

O=C(O)/C(=C\c1ccccc1)c1ccc([N+](=O)[O-])cc1
inactive: dose: 100.0 mg/kg/injection, schedule: Q04DX003 (ip), vehicle: saline with Tween-80 103 % of control | dose: 200.0 mg/kg/injection, schedule: Q04DX003 (ip), vehicle: saline with Tween-80 92 % of control | dose: 400.0 mg/kg/injection, schedule: Q04DX003 (ip), vehicle: saline with Tween-80 92 % of control

O=C1OC(=O)C2C1C1CCC2(C2OCCO2)O1 (stereo not given)
inactive: [4] 93 % of control | [1] 101 % of control | [2] 101 % of control

Cc1ccc(S(=O)(=O)OCC(F)(F)C(F)(F)C(F)(F)C(F)(F)C(F)(F)C(F)(F)C(F)(F)F)cc1
inactive: dose: 100.0 mg/kg/injection, schedule: Q01DX009 (ip), vehicle: saline 94 % of control | dose: 200.0 mg/kg/injection, schedule: Q01DX009 (ip), vehicle: saline 88 % of control | dose: 400.0 mg/kg/injection, schedule: Q01DX009 (ip), vehicle: saline 93 % of control

CC(C)([CH2][Sn]([CH2]C(C)(C)c1ccccc1)[CH2]C(C)(C)c1ccccc1)c1ccccc1.CC(C)([CH2][Sn]([CH2]C(C)(C)c1ccccc1)[CH2]C(C)(C)c1ccccc1)c1ccccc1
inactive: dose: 75.0 mg/kg/injection, schedule: Q01DX001 (ip), vehicle: other 101 % of control | dose: 150.0 mg/kg/injection, schedule: Q01DX001 (ip), vehicle: other 106 % of control | dose: 300.0 mg/kg/injection, schedule: Q01DX001 (ip), vehicle: other 94 % of control

COP1(=O)C=C(C)CC1 (stereo not given)
inactive: [5] 95 % of control | [6] 95 % of control | [7] 95 % of control

O=C(c1ccccc1)C(Cl)c1ccccc1 (stereo not given)
inactive: [3] 105 % of control | dose: 50.0 mg/kg/injection, schedule: Q01DX009 (ip), vehicle: Klucel (hydroxypropylcellulose) (HPC) 111 % of control | dose: 100.0 mg/kg/injection, schedule: Q01DX009 (ip), vehicle: Klucel (hydroxypropylcellulose) (HPC) 107 % of control

O=c1c([N+](=O)[O-])c[nH]c2cc(Cl)ccc12
inactive: dose: 50.0 mg/kg/injection, schedule: Q01DX001 (ip), vehicle: saline 92 % of control | [5] 101 % of control | [6] 103 % of control | [7] 97 % of control

O=C(COc1ccc([N+](=O)[O-])cc1Cl)Nc1ccccc1
inactive: dose: 100.0 mg/kg/injection, schedule: Q01DX009 (ip), vehicle: acetone 90 % of control | dose: 100.0 mg/kg/injection, schedule: Q04DX003 (ip), vehicle: acetone 95 % of control | dose: 200.0 mg/kg/injection, schedule: Q04DX003 (ip), vehicle: acetone 95 % of control | dose: 400.0 mg/kg/injection, schedule: Q04DX003 (ip), vehicle: acetone 94 % of control

O=C(c1ccco1)C(O)c1ccco1 (stereo not given)
inactive: [4] 96 % of control | [1] 104 % of control

Cc1ccc([N+](=O)[O-])cc1NC(=O)SCc1ccccc1
inactive: [8] 93 % of control | [9] 102 % of control | [10] 105 % of control

CCOC(=O)NC(/C=C/c1ccccc1)NC(=O)OCC
inactive: dose: 50.0 mg/kg/injection, schedule: Q01DX001 (ip), vehicle: carboxymethylcellulose (CMC) 92 % of control | dose: 100.0 mg/kg/injection, schedule: Q01DX001 (ip), vehicle: carboxymethylcellulose (CMC) 95 % of control | [5] 102 % of control | [6] 96 % of control | dose: 400.0 mg/kg/injection, schedule: Q01DX001 (ip), vehicle: carboxymethylcellulose (CMC) 95 % of control | [7] 100 % of control
